In US7531195B2, “Schisandrin B preparation” (priority 2005, dated 2009):
Marks after values point to notes of the source that are not given here.

Tests used:
H9c2 cells [1] = test: Xanthine/xanthine oxidase-induced cytotoxicity (LDH leakage) in H9c2 cells; assay type: cell-based, rat; conditions: 6.25 μM
Method: (§1) H9c2 cells, a permanent cell line derived from cardiac myoblasts of rat embryo, have early been characterized as a suitable model of myocardial cells [Hescheler et al. 1991]. H9c2 cells were cultured as monolayers in Dulbecco's modified Eagle's medium (GIBCO BRL) supplemented with 10% (v/v) fetal bovine serum. The medium contained glucose (4.5 g/L) and glutamine (4.5 mM), supplemented with NaHCO3 (17 mM), penicillin (100 IU/ml), and streptomycin (100 μg/ml). Cells were grown under an atmosphere of 5% CO2 in air at 37° C. The medium was replaced by fresh medium every 2 or 3 days. A stock of cells was grown in a 75 cm culture flask and split before confluence at a subcultivation ratio of 1:10. Cells used for experiments were seeded at a density of 3.75×10^4 cells/well on a 12-well culture plate, and the cells were grown for 24 h to about 80% confluence prior to drug treatment.
(§2) Cultured H9c2 cells were treated with (−) Schisandrin B, (+) Schisandrin B or (±) Schisandrin B (dissolved in DMSO) at 6.25 μM (0.2% DMSO final concentration) for increasing periods of time. Control cells were given the vehicle (i.e. DMSO) only. Immediately following the drug or vehicle pretreatment, the cells were challenged with a mixture of xanthine (X) (0.1 mM) and xanthine oxidase (XO) (0.4 U/ml) for 4 h. The control cells were treated with the medium only. After the X/XO challenge, the medium was taken for the measurement of LDH activity, a biochemical index of cellular injury.

H9c2 cells [2] = test: Menadione-induced toxicity (LDH) in H9c2 cells; assay type: cell-based, rat
Method: as §1
(§3) Cultured H9c2 cells were treated with (−) Schisandrin B, (+) Schisandrin B or (±) Schisandrin B (dissolved in DMSO) at 6.25 μM (0.2% DMSO final concentration) for 16 h. Control cells were given the vehicle (i.e. DMSO) only. Immediately following the drug or vehicle pretreatment, the cells were challenged with menadione (dissolved in ethanol) at 12.5 μM (0.2% ethanol final concentration) for 4 h. The control cells were treated with the medium containing 0.2% ethanol only. After the menadione challenge, the medium was taken for the measurement of LDH activity, an biochemical index of cell injury.

H9c2 cells [3] = test: Cellular GSH level in H9c2 cells, time course, with or without xanthine/xanthine oxidase (X/XO) challenge; assay type: cell-based, rat; conditions: 6.25 μM
Method: as §1, §2
(§4) The cells were washed twice with 0.5 ml cold phosphate-buffered saline (PBS), An aliquot (200 μl) of 3% sulfonsalicyclic acid was then added, and the mixture was incubate at 4° C. for 10 min. After centrifuging at 300 g for 15 min at 4° C., the supernatant was used for GSH measurement by an enzymatic method of Griffith (1980).

[4] = test system: mitochondria of brain, heart, liver and skeletal muscle; test: Mitochondrial ATP generation capacity in various tissues of young female rats; assay type: in vivo, rat; conditions: 15 days; for ATP generation: (−) Sch B, α-LA, α-Toc at daily 10, 5 and 70 mg/kg respectively
Myocardial Mitochondria = test: Myocardial mitochondrial ATP generation capacity, old male and female rats; assay type: in vivo, rat; conditions: liposome-encapsulated in drinking water, 10 mg/kg daily, 35 days
Method: Aged male and female rats (˜12 months old) were administered with liposome-encapsulated (−) Schisandrin B in drinking water for 35 days, with the daily dose estimated to be 10 mg/kg.
Male/Female adult Sprague-Dawley rats (˜12 months old) were maintained under a 12-h dark/light cycle at about 22° C. and allowed food and water ad libitum. Animals were randomly divided into groups, with at least 5 animals in each. In the pretreatment groups, rats were treated with liposome-encapsulated (−) Schisandrin B in drinking water for 35 days, with the estimated daily dose of 10 mg/kg. Control animals received empty liposomes-containing drinking water. Twenty-four hours following the last dosing, hearts were isolated from control or drug-pretreated rats and then subjected to Langendorff perfusion as described below.
Myocardial tissue samples were rinsed with ice-cold isotonic buffer (50 mM Tris, 0.32 M sucrose, 1 mM Na2EDTA, 0.2 mg/ml soybean trypsin inhibitor, 0.2 mg/ml bacitracine, 0.16 mg/ml benzamidine). Tissue homogenates were prepared by homogenizing 0.8 g of myocardial tissue in 8 ml ice-cold isotonic buffer and the homogenates were used for the preparation of mitochondrial fractions by differential centrifugation, as described in Chiu and Ko (2004). The mitochondrial pellets were resuspended in 1.5 ml of isotonic buffer containing 150 μl of 2 mg/ml soybean trypsin inhibitor and constituted the mitochondrial fractions.
Myocardial mitochondrial ATP generation capacity was measured by incubating 200 μl of nucleus-free tissue homogenate with 200 μl of substrate solution (containing 100 mM glutamate and 34 mM malate) and 20 μl ADP (2.3 mM) for 10 min at 37° C., and the ATP level were measured using an assay kit from Sigma Chemical Co. (St. Louis, Mo., USA). LDH activity was spectrophotometrically measured as described (Yim and Ko 1999).

H9c2 cells [5] = test: Cellular GSH level in H9c2 cells with or without menadione challenge; assay type: cell-based, rat
Method: as §1, §3, §4

[6] = X/XO challenge, 0 h post-dosing (unpretreated control)
[7] = X/XO challenge, 4 h post-dosing
[8] = X/XO challenge, 8 h post-dosing
[9] = X/XO challenge, 16 h post-dosing
[10] = X/XO challenge, 24 h post-dosing
[11] = X/XO challenge, 48 h post-dosing
[12] = MENADIONE 12.5 μM for 4 h, drug 6.25 μM for 16 h
[13] = NON-MENADIONE, 6.25 μM for 16 h

SMILES: COc1cc2c(c(OC)c1OC)-c1c(cc3c(c1OC)OCO3)CC(C)C(C)C2 (single isomer, unassigned; (-)) [(−) Sch B, (−) Schisandrin B]
- time of maximum extent of protection against X/XO-induced cell injury (LDH leakage) (H9c2 cells [1]; post-dosing): 16 h
- LDH Leakage (H9c2 cells [1]; [6]): 34.8 ± 1.13 U/L
- LDH Leakage (H9c2 cells [1]; [7]): 26.0 ± 0.92 U/L
- LDH Leakage (H9c2 cells [1]; [8]): 22.0 ± 0.63 U/L
- LDH Leakage (H9c2 cells [1]; [9]): 14.2 ± 0.35 U/L
- LDH Leakage, percent protection vs unpretreated control (0 h) (H9c2 cells [1]; [9]): (78%)
- LDH Leakage (H9c2 cells [1]; [10]): 17.5 ± 0.85 U/L
- LDH Leakage (H9c2 cells [1]; [11]): 26.3 ± 0.41 U/L
- LDH (H9c2 cells [2]; [12]): 20.6 ± 0.18 U/ml
- LDH, percent protection vs menadione control (H9c2 cells [2]; [12]): (60%)
- LDH (H9c2 cells [2]; [13]): 14.3 ± 0.29 U/ml
- stimulatory effect on cellular GSH (H9c2 cells [3]; 48 h post-dosing): no detectable stimulatory effect
- time of maximum stimulation of cellular GSH (H9c2 cells [3]; post-dosing): 16 h
- GSH Level (H9c2 cells [3]; NON-X/XO, 0 h post-dosing (unpretreated control)): 35.8 ± 1.04 nmol/mg protein
- GSH Level (H9c2 cells [3]; NON-X/XO, 4 h post-dosing): 46.8 ± 0.88 nmol/mg protein
- GSH Level (H9c2 cells [3]; NON-X/XO, 8 h post-dosing): 54.2 ± 1.42 nmol/mg protein
- GSH Level (H9c2 cells [3]; NON-X/XO, 16 h post-dosing): 92.6 ± 1.29 nmol/mg protein
- GSH Level, percent increase vs unpretreated control (0 h) (H9c2 cells [3]; NON-X/XO, 16 h post-dosing): (158%)
- GSH Level (H9c2 cells [3]; NON-X/XO, 24 h post-dosing): 79.0 ± 1.48 nmol/mg protein
- GSH Level (H9c2 cells [3]; NON-X/XO, 48 h post-dosing): 54.7 ± 3.58 nmol/mg protein
- GSH Level (H9c2 cells [3]; [6]): 15.9 ± 0.45 nmol/mg protein
- GSH Level (H9c2 cells [3]; [7]): 18.3 ± 0.57 nmol/mg protein
- GSH Level (H9c2 cells [3]; [8]): 20.7 ± 0.61 nmol/mg protein
- GSH Level (H9c2 cells [3]; [9]): 25.1 ± 1.50 nmol/mg protein
- GSH Level, percent increase vs unpretreated control (0 h) (H9c2 cells [3]; [9]): (57%)
- GSH Level (H9c2 cells [3]; [10]): 17.8 ± 0.59 nmol/mg protein
- GSH Level (H9c2 cells [3]; [11]): 16.7 ± 0.63 nmol/mg protein
- ATP generation ([4]; BRAIN): 143 ± 2 percent control
- ATP generation ([4]; HEART): 131 ± 4 percent control
- ATP generation ([4]; LIVER): 134 ± 5 percent control
- change in ATP generation in skeletal muscle tissue ([4]; SKELETAL MUSCLE, 10 mg/kg daily): No detectable change
- ATP generation ([4]; SKELETAL MUSCLE): 105 ± 41 percent control
- ATP generation (Myocardial Mitochondria; old female rats (~12 months)): 4.43 ± 0.10^b μmol/min/mg protein
- ATP Generation, percent increase vs untreated control (Myocardial Mitochondria; old female rats): (48%)
- ATP generation (Myocardial Mitochondria; old male rats (~12 months)): 3.75 ± 0.06 μmol/min/mg protein
- ATP Generation, percent increase vs untreated control (Myocardial Mitochondria; old male rats): (11%)
- GSH Level (H9c2 cells [5]; [12]): 33.3 ± 1.75 nmol/mg protein
- GSH Level, percent increase vs menadione control (H9c2 cells [5]; [12]): (81%)
- GSH Level (H9c2 cells [5]; [13]): 64.0 ± 2.96 nmol/mg protein
- GSH Level, percent increase vs non-menadione control (H9c2 cells [5]; [13]): (84%)
